In patent US11180509B2, “Thiazolidone spiro pyrimidine trione compound, preparation method therefor and uses thereof” (SHANGHAI INSTITUTE OF MATERIA MEDICA, CHINESE ACADEMY OF …, priority 2017, dated 2021):
≈ marks a conversion by molar mass, not a printed value. Like-named read-outs stand apart in the source and are kept apart here.

Legend:
[1] = tested on: Staphylococcus aureus MRSA15-3; experiment: In vitro antibacterial activity against the in vivo test strain (MIC); assay type: cell-based; settings: MRSA153
Procedure: (§1) The MIC value of each test sample for the tested strain was determined by micro broth dilution method recommended by Performance Standards for Antimicrobial Susceptibility Testing (Twenty-Third Informational Supplement; M02-A11, M07-A9 and M11-A8, 2013) of American Clinical and Laboratory Standards Institute (CLSI).
(§2) After diluting each test sample to different concentrations in MH broth, 100 μl of each sample solution at different concentrations was pipetted into a sterilized 96-well polystyrene plate. In the first to twelfth wells, the drug solution was added, and the final drug concentrations in each well were 64, 32, 16, 8, 4, 2, 1, 0.5, 0.25, 0.125, 0.06, and 0.03 mg/L. The well without drug and without bacteria was set as blank control well. The well with bacteria and without drug was set as a bacterial growth control well.
The test bacterial solution was adjusted with physiological saline to a bacterial suspension equivalent to 0.5 Maisson turbidity standard, and diluted 1:100 with MH broth. The drug solution was added so that the final concentration of the bacterial solution was about 10^4 CFU/ml; then 100 μl of bacterial solution was pipetted into the above wells (the total volume in each well was 200 μl). The plate was sealed and placed in a 35-37° C. incubator for 18-20 h, and then the results were determined. […]

[2] = tested on: S. aureus MRSA15-3 infected mice; experiment: In vivo protection test, systemic infection model (ED50); parameters: species or system Kunming mice; settings: Staphylococcus aureus
[3] = In vivo pharmacokinetics test in mice (oral); parameters: species or system CD-1 mice; settings: PO 10.0 mg/kg
Procedure: Healthy female CD-1 mice were randomly divided into five groups and each group comprised three mice. The tested compound was administered orally.
0.030 mL of blood was taken from the orbit of each animal each time and anticoagulated with EDTAK2. The collection time was as follows. PO group: 15 m, 30 mi, 1 h, 2 h, 4 h, 6 h, 8 h, and 24 h after administration of the test compound. The collected blood samples were placed on ice and centrifuged within 30 minutes to separate the plasma (centrifugation conditions: 5000 rpm, 10 minutes, room temperature). The samples were stored at −80° C. before analysis.

[4] = In vivo pharmacokinetic test in rats (PO and IV); settings: SD rats
Procedure: Nine SD rats were randomly divided into three groups and each group comprised three […].
0.100 mL of blood was taken from the orbit of each animal each time and anticoagulated with EDTAK2. The collection time was as follows. (1) PO group (10.0 mg/kg): 15 min, 30 min, 1 h, 2 h, 4 h, 6 h, 8 h, 24 h after administration of the test compound; PO group (100 mg/kg): 15 min, 30 min 1 h, 2 h, 4 h, 6 h, 8 h, 10 h, 24 h, 36 h, 48 h; (2) IV group: 5 min, 15 min, 30 min, 1 h, 2 h, 4 h, 6 h, 8 h, 24 h after administration of the test compound. The collected blood samples were placed on ice and centrifuged within 30 minutes to separate the plasma (centrifugation conditions: 5000 rpm, 10 minutes, 4° C.). The samples were stored at −80° C. before analysis.

[5] = tested on: methicillin-resistant Staphylococcus epidermidis or MRSE; experiment: In vitro antibacterial activity, MIC by micro broth dilution; assay type: cell-based; settings: read-out: MIC MRSE
Description: (§3) The following strains isolated in clinic were used in antibacterial activity screening in vitro: five strains of methicillin-resistant Staphylococcus aureus or MRSA, five strains of methicillin-sensitive Staphylococcus aureus or MSSA, five strains of methicillin-resistant Staphylococcus epidermidis or MRSE, five strains of methicillin-sensitive Staphylococcus epidermidis or MSSE, three strains of penicillin-resistant Streptococcus pneumoniae or PRSP, and three strains of Streptococcus pyogenes.
(§4) The above strains were clinically isolated pathogenic bacteria collected in Sichuan and Beijing in December 2015. They were identified by the collection unit via a VITEK-60 automatic microbiological identification instrument, and then re-identified by conventional methods in the laboratory. Before the experiment, each strain was purified by a single colony on an agar plate, and the cells freshly cultured at 37° C. overnight were appropriately diluted for the experiment. Quality control strain was Staphylococcus aureus ATCC25923 purchased from the Clinical Testing Center of the Ministry of Health of the People's Republic of China.
(§5) Medium: MH (Mueller-Hinton, hydrolyzed casein) broth (OXOID);
(§6) Culture condition: Incubate at 35-37° C. for 16-18 h.
as §1, §2
(§7) The test bacterial solution was adjusted with physiological saline to a bacterial suspension equivalent to 0.5 Maisson turbidity standard, and diluted 1:100 with MH broth. The drug solution was added so that the final concentration of the bacterial solution was about 10^4 CFU/ml; then 100 μl of bacterial solution was pipetted into the above wells (the total volume in each well was 200 μl). The plate was sealed and placed in a 35-37° C. incubator for 18-20 h, and then the results were determined. […] When Streptococcus pneumoniae was tested, sterile defibrillated sheep blood was added into the Colombian broth culture medium at a final concentration of 5% and cultivation was conducted in a 5% CO2 and 35-37° C. incubator for 18-20 hours.

[6] = tested on: penicillin-resistant Streptococcus pneumoniae or PRSP; experiment: as above; assay type: cell-based; settings: read-out: MIC PRSP
Description: as §3, §4, §5, §6, §1, §2, §7

[7] = tested on: methicillin-sensitive Staphylococcus aureus or MSSA; experiment: as above; assay type: cell-based; settings: read-out: MIC MSSA
Description: as §3, §4, §5, §6, §1, §2, §7

[8] = tested on: methicillin-sensitive Staphylococcus epidermidis or MSSE; experiment: as above; assay type: cell-based; settings: read-out: MIC MSSE
Description: as §3, §4, §5, §6, §1, §2, §7

[9] = tested on: methicillin-resistant Staphylococcus aureus or MRSA; experiment: as above; assay type: cell-based; settings: read-out: MIC MRSA
Description: as §3, §4, §5, §6, §1, §2, §7

Streptococcus pyogenes = experiment: as above; assay type: cell-based; settings: read-out: MIC Spy
Description: as §3, §4, §5, §6, §1, §2, §7

[10] = tested on: MRSA, MSSA, MRSE, MSSE, PRSP, and Spy; experiment: In vitro antibacterial activity over the whole strain panel, compared with AZD0914; assay type: cell-based; settings: against MRSA
Description: as §3, §4, §1, §2, §7

[11] = po, read-out: ED50 95% confidence limit
[12] = female, CD-1, mouse, plasma, read-out: Cmax
[13] = female, CD-1, mouse, plasma, read-out: MRT
[14] = female, CD-1, mouse, plasma, read-out: Tmax

Compound	MIC [1] [µg/mL]	ED50 [2] [mg/kg]	ED50 [2, 11] [mg/kg]	AUC(0-t) ([3]; female, CD-1, mouse, plasma) [ng·h/mL]	half-life ([3]; female, CD-1, mouse, plasma) [h]	Cmax [3, 12] [ng/mL]	MRT [3, 13] [h]	Tmax [3, 14] [h]	MIC [5] [µg/mL]	MIC [6] [µg/mL]	MIC [7] [µg/mL]	MIC [8] [µg/mL]	MIC [9] [µg/mL]	MIC (Streptococcus pyogenes) [µg/mL]	also measured
C[C@@H]1CN2c3c(cc4c(N5C[C@H](C)SC5=O)noc4c3F)CC3(C(=O)NC(=O)NC3=O)[C@H]2[C@H](C)O1 [Compound 2, (2R,4S,4aS)-11-fluoro-2,4-dimethyl-8-((S)-5-methyl-2-oxothiazolin-3-yl)-1,2,4,4a-tetrahydro-2′H,6H-spiro[isoxazole[4,5-g][1,4]oxazine[4,3-a]quinoline-5,5′-pyrimidine]-2′,4′,6′(1′H,3′H)-trione]	< 0.03	2.54	0.11 to 3.71	24200 ± 5640	6.2 ± 1.4	2580 ± 713	8.94 ± 2.15	2.67 ± 1.15	< 0.03	< 0.03	0.03 to 0.06 (≈ 0.0596 to 0.119 µM)	< 0.03	0.03 to 0.25 (≈ 0.0596 to 0.497 µM)	< 0.03	AUC0-t (IV) ([4]; IV 10 mg/kg): 89577 ± 9072 ng·h/mL; Cl (IV) ([4]; IV 10 mg/kg): 1.82 ± 0.214 mL/min/kg; T1/2 (IV) ([4]; IV 10 mg/kg): 4.93 ± 0.844 h; Vdss (IV) ([4]; IV 10 mg/kg): 0.675 ± 0.0578 L/kg; % F ([4]; PO 10 mg/kg): 52.0 ± 8.41%; AUC0-t (PO) ([4]; PO 10 mg/kg): 46598 ± 7538 ng·h/mL; Cmax (PO) ([4]; PO 10 mg/kg): 4430 ± 1250 ng/mL; T1/2 (PO) ([4]; PO 10 mg/kg): 4.38 ± 1.21 h; Cmax (PO) ([4]; PO 100 mg/kg): 32069 ± 7934 ng/mL; MRT ([4]; rat, plasma, IV 10 mg/kg, read-out: MRT (IV)): 6.22 ± 0.601 h; Tmax ([4]; rat, plasma, PO 10 mg/kg): 5.33 ± 1.15 h; MRT ([4]; rat, plasma, PO 10 mg/kg, read-out: MRT (PO)): 7.54 ± 0.773 h; AUC(0-t) ([4]; rat, plasma, PO 100 mg/kg): 509000 ± 65900 ng·h/mL; Tmax ([4]; rat, plasma, PO 100 mg/kg): 5.33 ± 1.15 h; bioavailability ([4]; rat, plasma, PO 100 mg/kg): 55.1 ± 7.1%; MRT ([4]; rat, plasma, PO 100 mg/kg, read-out: MRT (PO)): 11.1 ± 2.11 h; half-life ([4]; rat, plasma, PO 100 mg/kg, read-out: T1/2 (PO) (converted)): 4.19 ± 0.23 h
C[C@@H]1CN2c3c(cc4c(N5C(=O)OC[C@@H]5C)noc4c3F)CC3(C(=O)NC(=O)NC3=O)[C@H]2[C@H](C)O1 [AZD0914, reference compound]	0.125 (≈ 0.256 µM)	11.5	7.28 to 25.8	748 ± 215	3.41 ± 0.944	183 ± 134	7.06 ± 2.92	0.583 ± 0.382	0.06 to 0.25 (≈ 0.123 to 0.513 µM)	0.25 to 1 (≈ 0.513 to 2.05 µM)	0.125 to 0.25 (≈ 0.256 to 0.513 µM)	0.06 to 0.25 (≈ 0.123 to 0.513 µM)	0.06 to 1 (≈ 0.123 to 2.05 µM)	0.25 to 0.5 (≈ 0.513 to 1.03 µM)	
C[C@@H]1CN2c3c(cc4c(N5CCSC5=O)noc4c3F)CC3(C(=O)NC(=O)NC3=O)[C@H]2[C@H](C)O1 [Compound 1, (2R,4S,4aS)-11-fluoro-2,4-dimethyl-8-(2-oxothiazolin-3-yl)-1,2,4,4a-tetrahydro-2′H,6H-spiro[isoxazole[4,5-g][1,4]oxazine[4,3-a]quinoline-5,5′-pyrimidine]-2′,4′,6′(1′H,3′H)-trione]									< 0.03	< 0.03	< 0.03	< 0.03	0.03 to 0.06 (≈ 0.0613 to 0.123 µM)	< 0.03	melting point: 225 to 226 °C; in vitro antibacterial activity relative to AZD0914 [10]: about 8 times; AUC0→t relative to AZD0914 ([3]; multiple of the AZD0914 value): ~10 times); Cmax relative to AZD0914 ([3]; multiple of the AZD0914 value): ~8 times); AUC0→t ([3]; plasma): 7334 ± 943 ng·h/mL; Cmax ([3]; plasma): 1548 ± 52 ng/mL; MRT ([3]; plasma): 3.70 ± 0.95 h; Tmax ([3]; plasma): 1.33 ± 0.577 h; t1/2 ([3]; plasma): 2.90 ± 1.72 h
